In brackets after ≈: the same amount, converted by molar mass.

One series deals with Wi-38 cells. Nature of the series: MTT cytotoxicity assay, normal cells. Format: cell-based. The settings on record: 48 h; for IC50 Wi-38: normal human lung fibroblast cells; for IC50: WI-38, normal human lung fibroblast cells. The text has this: (§1) MTT assay: the normal cell line (Wi-38), colon cancer (Caco-2), lung cancer (A549), and breast cancer (MDA) cell lines were sourced from ATCC, USA. All different cell lines were cultivated and preserved in DMEM medium (SERANA, Germany), accompanied by 10% FBS (Gibco, USA) and 1% Pen/Strep solution (Lonza, USA). The newly prepared derivatives at various doses were considered for their anticancer activity and their safety on normal cells, applying MTT (3-[4, 5-dimethylthiazol]-2, 5-diphenyltetrazolium bromide) methods.[22] At first, all normal and cancer cell lines (1.0 ×10^4) were inoculated in 4 antiseptic 96-well tissue culture microplates and incubated for 24 h in a CO2 incubator. After cell attachments, the prepared derivatives were added to both normal Wi-38 cells at diverse concentrations of (6.25–200 μg mL^−1, 2-fold) and cancer cells at different concentrations of (3.125–100 μg mL^−1, 2-fold) in triplicate and incubated for another 48 h at 37 °C in a CO2 incubator with an adjusted concentration of 5%. After that, the treated cells were cleaned three times with PBS to remove debris and dead cells. Next, 200 μL of 0.5 mg mL^−1 MTT dye solution in PBS was mixed in each well, and the cells were further kept for 3 h at 37 °C in a 5% CO2 incubator. After that, MTT was removed and 200 μL of DMSO was added to each well. The optical density (OD) was recorded at 570 nm via a microplate reader (B.M.G. LabTech, Germany). Basic cells (untreated) were utilized as negative control cells, and 5-fluorouracil (5-FU) was included as a standard chemotherapy drug. The qualified cell viability (%) was evaluated as in equation (eqn (1)):1 Relative cell viability (%) = […] A1 is the OD of the examined derivative, A0 is the OD of the standard, and AU is the OD of the untreated cells.
(§2) Anticancer activity assay: the anticancer effect of each derivative was assessed by evaluating the half-maximal inhibitory concentration (IC50) value via the GraphPad Prism 7.0 software. However, SI (selective index) values of each derivative were estimated by splitting the IC50 value of healthy cells by the IC50 value of malignant cells, as previously reported.[23] The effects of the created derivatives on the morphology of MDA cells were evaluated at IC50 doses and captured by phase-contrast microscopy (Olympus, Germany) in comparison to untreated control cells.
Background: Tetrazolium assays rely on reduction of a dye to a coloured formazan, in cell work by metabolically active cells.

Series [1] has as its system A549 cells. Nature of the series: MTT anticancer assay. Format: cell-based, human. The note with it: 48 h; for IC50 A549: lung carcinoma cells; for IC50: Homo sapiens, A549, lung carcinoma cells.
Source text: as §1, §2

The subject of a further series is MDA cells. Nature of the series: MTT anticancer assay. Format: cell-based, human. The note with it: 48 h; for IC50 MDA: breast carcinoma cells; for IC50: Homo sapiens, Breast carcinoma cell.
Source text: as §1, §2

The next series concerns Caco-2 cells. Nature of the series: MTT anticancer assay. Format: cell-based. The settings on record: for SI Caco-2: IC50 Wi-38 / IC50 Caco-2; for IC50 Caco-2 / IC50: colon carcinoma cells, MTT, 48 h; for IC50: Homo sapiens, Caco-2.
Source text: as §1, §2

A further series concerns S. aureus. The series is described as follows: Agar-well diffusion of synthesized compounds. Format: cell-based, Staphylococcus aureus ATCC 25923. The note with it: 100 μL of 10 mg mL^−1 per well, 24 h, 37 °C. From the text: The antimicrobial activity of the prepared compounds was estimated through an agar-well diffusion method as adapted from the modified Kirby–Bauer protocol.[24] In this test, microbial pathogens were applied, including Staphylococcus aureus ATCC 25923 (S. aureus), Streptococcus mutans ATCC 25175 (S. mutans), Bacillus cereus ATCC 19637 (B. cereus), Bacillus aureus ATCC 25923 (B. aureus), Bacillus epidermidis ATCC 14990 (B. epidermidis), and Bacillus subtilis ATCC 11774 (B. subtilis) as Gram-positive bacteria, and Pseudomonas aeruginosa ATCC 27853 (P. aeruginosa), Klebsiella pneumonia ATCC 13883 (K. pneumonia), and Salmonella typhimurium ATCC 14028 (S. typhimurium), Salmonella pneumoniae ATCC 10031(S. pneumoniae), Escherichia coli ATCC 10536 (E. coli), and Salmonella paratyphi ATCC 9150 (S. paratyphi) as Gram-negative bacteria. Additionally, Candida albicans (ATCC 10231), Candida krusei ATCC 6258 (C. krusei), Candida glabrata ATCC 66032 (C. glabrata), andCandida parapsilosis ATCC 22019 (C. parapsilosis) were applied as models of unicellular fungi. The pre-inoculation cultures of the pathogens were prepared on Muller–Hinton broth and cultivated for 24 h at 37 °C. The agar-well test was prepared on Muller–Hinton agar with 100 μL of each pathogen pre-culture (0.5 McFarland conc.) and uniformly distributed on the plate surface. […]
In general terms: In agar diffusion tests the substance spreads into inoculated agar from a disc or well.

In the next series the test system is S. mutans. The series is described as follows: Agar-well diffusion of synthesized compounds. Format: cell-based, Streptococcus mutans ATCC 25175. The settings on record: 100 μL of 10 mg mL^−1 per well, 24 h, 37 °C. The text has this: (§3) The antimicrobial activity of the prepared compounds was estimated through an agar-well diffusion method as adapted from the modified Kirby–Bauer protocol.[24] In this test, microbial pathogens were applied, including Staphylococcus aureus ATCC 25923 (S. aureus), Streptococcus mutans ATCC 25175 (S. mutans), Bacillus cereus ATCC 19637 (B. cereus), Bacillus aureus ATCC 25923 (B. aureus), Bacillus epidermidis ATCC 14990 (B. epidermidis), and Bacillus subtilis ATCC 11774 (B. subtilis) as Gram-positive bacteria, and Pseudomonas aeruginosa ATCC 27853 (P. aeruginosa), Klebsiella pneumonia ATCC 13883 (K. pneumonia), and Salmonella typhimurium ATCC 14028 (S. typhimurium), Salmonella pneumoniae ATCC 10031(S. pneumoniae), Escherichia coli ATCC 10536 (E. coli), and Salmonella paratyphi ATCC 9150 (S. paratyphi) as Gram-negative bacteria. Additionally, Candida albicans (ATCC 10231), Candida krusei ATCC 6258 (C. krusei), Candida glabrata ATCC 66032 (C. glabrata), andCandida parapsilosis ATCC 22019 (C. parapsilosis) were applied as models of unicellular fungi. The pre-inoculation cultures of the pathogens were prepared on Muller–Hinton broth and cultivated for 24 h at 37 °C. The agar-well test was prepared on Muller–Hinton agar with 100 μL of each pathogen pre-culture (0.5 McFarland conc.) and uniformly distributed on the plate surface. Under aseptic conditions, six wells were created on the agar surface using a sterile corkborer (9 mm). To each well, 100 μL of the prepared compound (10 mg mL^−1) was separately inserted into each plate. All plates were incubated for 24 h at 37 °C; the established inhibition zones (Halo-zones) surrounding the wells indicated positive antimicrobial activity and were stated as the radius of the inhibition zone (mm).

The test system of series [2] is A549 cells. The series is described as follows: Wound healing scratch (anti-migration) assay. The settings on record: IC50 doses, 48 h. Format: cell-based, human. As for the experimental part:
To assess the anti-migration inhibition capability of newly synthesized derivatives, a wound healing technique was employed. A549 cells were planted in 12-well plates and kept alive at 37 °C until they achieved 80–90% fluency. The cell monolayers were smashed with a sterile tip and exposed to the prepared derivatives at IC50 doses. At 0 and 48 h of treatment, the wound closure area was captured and calculated by imaging analysis with the Cell-Sens software (Olympus, Japan).

Another series relates to all applied pathogens. The series is described as follows: Agar-well diffusion of synthesized compounds, whole panel. Format: cell-based.
Source text: as §3

Regarding `Nc1ccc(Nc2ccnc3cc(Cl)ccc23)cc1` [Compound A1], the “IC50 Wi-38” value with Wi-38 cells was 175.3 ± 14.08 µg/mL (≈ 650 µM). The “IC50 A549” value in the series with A549 cells [1] turned out to be 32.05 ± 2.18 µg/mL (≈ 119 µM). Further, in the series on MDA cells, the “IC50 MDA” value is 14.91 ± 0.96 µg/mL (≈ 55.3 µM). In the series on Caco-2 cells, the “SI Caco-2” value was 4.59 ± 0.37 and the “IC50 Caco-2” value was 38.23 ± 1.64 µg/mL (≈ 142 µM).
For `Nc1ccc(Nc2c3ccccc3nc3ccccc23)cc1` [Compound B1], the “IC50 Wi-38” value in the series on Wi-38 cells came to 195.0 ± 14.41 µg/mL (≈ 683 µM). In the series on A549 cells [1], the “IC50 A549” value was determined as 16.93 ± 1.88 µg/mL (≈ 59.3 µM). The “IC50 MDA” value with MDA cells was found to be 8.92 ± 0.67 µg/mL (≈ 31.3 µM). In the series on S. aureus, the Inhibition zone entry is given as “about 13 mm”. Also, in the series with Caco-2 cells, the “SI Caco-2” value was 8.07 ± 0.59 and the “IC50 Caco-2” value was determined as 24.15 ± 1.76 µg/mL (≈ 84.6 µM). In addition, the Inhibition zone result in the series on S. mutans is recorded as “about 13 mm”. Further, in the series on A549 cells [2], the Migration inhibition is listed as 74.63%.
Usually IC50 stands for the concentration that gives 50% inhibition. Read a low IC50 as greater potency in that assay. `O=C(Nc1ccc(Nc2c3ccccc3nc3ccccc23)cc1)c1cc2ccccc2oc1=O` [Compound B, N-(4-(acridin-9-ylamino)phenyl)-2-oxo-2H-chromene-3-carboxamide]: the half-inhibitory concentration (IC50) in the series on Wi-38 cells came out at 126 ± 10.9 µg/mL (≈ 276 µM); with A549 cells [1], 6.98 ± 1.99 µg/mL (≈ 15.3 µM); in the series on MDA cells, 4.27 ± 0.46 µg/mL (≈ 9.33 µM); with Caco-2 cells, 4.87 ± 1.69 µg/mL (≈ 10.6 µM). Besides, the “Antimicrobial activity” value in the series with all applied pathogens is “no antimicrobial activity”. Moreover, the “SI Caco-2” value in the series on Caco-2 cells was 25.93 ± 2.25. The same compound came in with a Migration inhibition in the series with A549 cells [2] of 87.21%.
Turning to `Cc1ccc(-c2nnc(Nc3ccc(N)cc3)c3ccccc23)cc1` [Compound C1], the “IC50 Wi-38” value in the series on Wi-38 cells amounted to 192.7 ± 16.79 µg/mL (≈ 590 µM). For the same compound, the “IC50 A549” value with A549 cells [1] was 21.01 ± 2.05 µg/mL (≈ 64.4 µM). The “IC50 MDA” value in the series on MDA cells was found to be 13.98 ± 0.57 µg/mL (≈ 42.8 µM). In addition, in the series with Caco-2 cells, the “SI Caco-2” value is on record as 15.94 ± 1.39 and the “IC50 Caco-2” value is 12.09 ± 1.42 µg/mL (≈ 37 µM).
For `O=c1[nH]cc(F)c(=O)[nH]1` [Compound 5-FU, 5-fluorouracil, reference compound], the half-inhibitory concentration (IC50) came to 5.23 ± 0.18 µg/mL (≈ 40.2 µM) in the series on Wi-38 cells, 5.74 ± 0.24 µg/mL (≈ 44.1 µM) with A549 cells [1], 5.89 ± 0.19 µg/mL (≈ 45.3 µM) in the series with MDA cells and 6.13 ± 0.28 µg/mL (≈ 47.1 µM) in the series on Caco-2 cells. The “SI Caco-2” value in the series on Caco-2 cells came out at 0.85 ± 0.03.

For the origin of these results see paper PMC12495412, “Coumarin/nitrogen-bearing heterocyclic hybrid-loaded electrospun PMMA/PVP nanofibrous scaffolds for accelerating topical wound healing rates: synthesis and in vitro bio-evaluation” (RSC Advances, 2025).
